Legend:
[1] = target: Tyrosine-protein kinase SYK (Homo sapiens, UniProt P43405); experiment: Syk Kinase Activity Inhibitiory Experiment: Measure of SYK protein kinase activity was carried out by using the Caliper mobility shift assay. The compound was dissolved with DMSO and diluted with kinase buffer (20 mM HEPES pH 7.5, 0.01% Triton X-100, 5 mM MgCl2, 1 mM MnCl2, 2 mM DTT), and 5 μl of 5 times the final concentration of the compounds (10% DMSO) were added to 384 well plate. 10 μl of 2.5 fold enzyme (with SYK) solution was added and incubated at room temperature for 10 minutes, then 10 of 2.5 fold substrate (Peptide FAM-P22) and ATP) solution was added. The mixture was incubated for 30 minutes under 28° C., and 25 μl of stop buffer (100 mM HEPES pH 7.5, 0.015% Brij-35, 0.2% Coating Reagent #3, 50 mM EDTA) was added to terminate the reaction. Conversion rate data was read by Caliper EZ Reader II (Caliper Life Sciences). Conversion rate was converted to inhibition rate data (% inhibition rate=(max−conversion rate)/(max−min)*100). The max refers to the conversion rate of the DMSO control, and min refers to the conversion rate of the enzyme-free control. The curve was drawn with the compound concentration and inhibition rate as the horizontal and vertical coordinates, and the curve was fitted with the XLFit excel add-in version 4.3.1 Software, and IC50 was calculated.
[2] = target: Histone deacetylase 1 (Homo sapiens, UniProt Q13547); experiment: HDAC-1 and HDAC-6 Activity Inhibition Experiment: HDAC activity was measured by the Synergy MX Multi-Function Microplate Reader. The compounds were dissolved with DMSO, and transferred to a 384 well test plate using an Echo non-contact nanoscale sonic pipetting system. 15 μl of enzyme (HDAC1/HDAC6, respectively) solvent was added, and incubated at room temperature for 15 minutes, then 10 μl of substrate (trypsin and Ac-peptide) solution was added. Fluorescence intensity signal was read directly on Synergy MX (fluorescence excitation 355 nm, emission fluorescence 460 nm) after cultivated at room temperature for 60 minutes. Fluorescence intensity signal was convented into inhibition rate data (% inhibition rate=(max−fluorescence intensity)/(max−min)*100). The max refers to the fluorescence intensity of the DMSO control, and min refers to the fluorescence intensity of the enzyme-free control. The curve was drawn with the compound concentration and inhibition rate as the horizontal and vertical coordinates, and the curve was fitted with the GraphPad Prism V5.0 Software, and IC50 was calculated.
Sequence of Histone deacetylase 1 (Q13547 whole entry): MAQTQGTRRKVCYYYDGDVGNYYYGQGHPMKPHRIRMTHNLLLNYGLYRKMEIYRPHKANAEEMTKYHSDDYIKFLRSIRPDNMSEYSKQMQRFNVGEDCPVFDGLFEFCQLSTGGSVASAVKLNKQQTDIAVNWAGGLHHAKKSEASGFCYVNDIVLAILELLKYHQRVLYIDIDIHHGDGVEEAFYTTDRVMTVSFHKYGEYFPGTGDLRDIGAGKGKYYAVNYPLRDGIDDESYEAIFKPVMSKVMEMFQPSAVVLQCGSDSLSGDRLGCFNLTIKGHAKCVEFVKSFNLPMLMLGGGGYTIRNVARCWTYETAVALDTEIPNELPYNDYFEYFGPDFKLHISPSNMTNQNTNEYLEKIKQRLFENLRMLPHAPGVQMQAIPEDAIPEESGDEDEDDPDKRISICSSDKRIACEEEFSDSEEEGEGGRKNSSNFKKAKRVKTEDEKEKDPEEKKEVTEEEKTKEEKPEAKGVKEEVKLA

- IC50 [1]: < 500 nM
- IC50 [2]: < 100 nM
SMILES: O=C(CCCCCCNC(=O)c1cccc(-c2cn3ccnc3c(Nc3ccc(N4CCOCC4)cc3)n2)c1)NO
